What was measured:
[1] = molecular target: IL-17A(FLAG-Tagged): IL-17RA(His-Tagged) (Homo sapiens, UniProt Q16552, K93Q); assay: IL-17A(FLAG-Tagged): IL-17RA(His-Tagged) Binding Disruption Eu-HTRF Assay; settings: IL-17A/IL-17RA binding disruption, simple average if tested more than once
Summary of the method: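 IC50 comes from a one-site competition fit of the HTRF 665/620 nm ratio. Compound dilutions (2-fold, 22 points) were held 1 h rt with FLAG-tagged IL-17A dimer, then His-tagged IL-17RA plus Eu-cryptate anti-FLAG and D2 anti-His antibodies were added for 2 h rt.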

[2] = test system: IL-17A-induced G-CSF production in human normal keratinocyte (NHK); assay: NHK Assay: IL-17A-induced G-CSF production in human normal keratinocytes; assay type: cell-based; settings: adult normal human keratinocytes, IL-17A 5 ng/mL, 24 h, simple average if tested more than once
Summary of the method: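 Adult NHK, 3000-4000 cells/well; rhIL-17A + titrated cpd preincubated 1 h rt, then onto cells. Final: IL-17A 5 ng/mL, DMSO 0.2%, 5% FBS. 24 h, 37° C. G-CSF in supernatant by HTRF vs standard curve; IC50. Viability by CellTiter-Glo vs DMSO.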

Sequence of UniProt Q16552 (Q16552 with tags, fused parts or gaps K93Q): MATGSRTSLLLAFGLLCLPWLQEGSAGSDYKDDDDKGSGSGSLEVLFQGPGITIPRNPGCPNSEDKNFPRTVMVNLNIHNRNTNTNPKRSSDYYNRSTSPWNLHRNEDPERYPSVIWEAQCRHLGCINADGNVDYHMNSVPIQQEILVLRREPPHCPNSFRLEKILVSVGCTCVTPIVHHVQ

Structure (SMILES)	IC50 [1] [nM]	IC50 [2] [nM]	IC50 ([2]; Homo sapiens, Keratinocyte) [nM]
Cc1nonc1C(=O)N[C@H](c1cn2ncc([C@H](NC(=O)CC(C)C(F)F)C3CC3)cc2n1)C1CCC(F)(F)CC1 (single isomer, unassigned) [Example 264, N—((S)-(7-((R)-Cyclopropyl((R*)-4,4-difluoro-3-methylbutanamido)methyl)imidazo[1,2-b]pyridazin-2-yl)(4,4-difluorocyclohexyl)methyl)-4-methyl-1,2,5-oxadiazole-3-carboxamide]	48	350	–
COc1nonc1C(=O)N[C@H](c1cn2ncc([C@H](NC(=O)CC3CC(F)(F)C3)C3CC3)cc2n1)C1CCC(F)(F)CC1 [Example 409, N—((S)-(7-((R)-Cyclopropyl(2-(3,3-difluorocyclobutyl)acetamido)methyl)imidazo[1,2-b]pyridazin-2-yl)(4,4-difluorocyclohexyl)methyl)-4-methoxy-1,2,5-oxadiazole-3-carboxamide]	85	–	140
CC(C)n1nccc1C(=O)N[C@H](c1cn2ncc([C@H](NC(=O)CC34CC(C3)C4)C3CC3)cc2n1)C1CCC(F)(F)CC1 [Example 248, N—((S)-(7-((R)-(2-(Cicyclo[1.1.1]pentan-1-yl)acetamido)(cyclopropyl)methyl)imidazo[1,2-b]pyridazin-2-yl)(4,4-difluorocyclohexyl)methyl)-1-isopropyl-1H-pyrazole-5-carboxamide]	49	–	37
O=C(CCC(F)(F)F)NC(c1cnn2cc([C@@H](NC(=O)c3cnn(CCC(F)(F)F)n3)C3CCC(F)(F)CC3)nc2c1)C1CC1 (single isomer, unassigned) [Example 19, N—((S)-(7-((S*)-Cyclopropyl(4,4,4-trifluorobutanamido)methyl)imidazo[1,2-b]pyridazin-2-yl)(4,4-difluorocyclohexyl)methyl)-2-(3,3,3-trifluoropropyl)-2H-1,2,3-triazole-4-carboxamide]	3900	3800	–
CC(C)n1nccc1C(=O)N[C@H](c1cn2ncc([C@H](NC(=O)CC3CC(F)(F)C3)C3CC3)cc2n1)C1CCC(F)(F)CC1 [Example 119, N—((S)-(7-((R)-Cyclopropyl(2-(3,3-difluorocyclobutyl)acetamido)methyl)imidazo[1,2-b]pyridazin-2-yl)(4,4-difluorocyclohexyl)methyl)-1-isopropyl-1H-pyrazole-5-carboxamide]	96	–	36

More lines, in order of falling IC50 [1], values ahead:

IC50 [1] [nM]	Structure (SMILES)	IC50 [2] [nM]	IC50 ([2]; Homo sapiens, Keratinocyte) [nM]
4400	Cc1nonc1C(=O)N[C@H](c1cn2ncc([C@H](NC(=O)[C@H]3CC[C@@H]3F)C3CC3)cc2n1)C1CCC(F)(F)CC1 (relative stereo) [Example 334, N—((S)-(7-((R)-Cyclopropyl((1R*,2S*)-2-fluorocyclobutane-1-carboxamido)methyl)imidazo[1,2-b]pyridazin-2-yl)(4,4-difluorocyclohexyl)methyl)-4-methyl-1,2,5-oxadiazole-3-carboxamide]	–	> 20000
300	CC(C)n1nccc1C(=O)N[C@H](c1cn2ncc(C(CC#N)NC(=O)CC3CC(F)(F)C3)cc2n1)C1CCC(F)(F)CC1 (single isomer, unassigned) [Example 447, N—((S)-(7-((R*)-2-Cyano-1-(2-(3,3-difluorocyclobutyl)acetamido)ethyl)imidazo[1,2-b]pyridazin-2-yl)(4,4-difluorocyclohexyl)methyl)-1-isopropyl-1H-pyrazole-5-carboxamide]	1100	–
78	O=C(CCC(F)(F)F)N[C@@H](c1cnn2cc([C@@H](NC(=O)c3ncnn3CCC(F)(F)F)C3CCC(F)(F)CC3)nc2c1)C1CC1 [Example 38, N—((S)-(7-((R)-Cyclopropyl(4,4,4-trifluorobutanamido)methyl)imidazo[1,2-b]pyridazin-2-yl)(4,4-difluorocyclohexyl)methyl)-1-(3,3,3-trifluoropropyl)-1H-1,2,4-triazole-5-carboxamide]	–	400

— US11702422B2, “Imidazopyridazines as modulators of IL-17” (Janssen Pharmaceutica NV, priority 2020, dated 2023)
